Test results taken from patent US20180186796A1, “COMPOUNDS AND USES THEREOF” (LEAD DISCOVERY SIENA S.R.L., priority 2014, published 2018).
Converted amounts (≈) assume the structure as drawn. Read-outs that look alike come from different tables or passages of the source.

Key:
[1] = Stability tests in phosphate buffer and methanol; type: physicochemical; details: 20° C., 48 h incubation
[2] = Microsomal stability assay; details: percentage of unmodified drug, Table 8
[3] = test system: U87 cells; assay: Proliferation assay on U87 cells; type: cell-based, human; details: 72 h, viable cells vs untreated
Protocol: (§1) U87 and U251 cells were purchased from European Collection of Cell Cultures (ECACC, Salisbury, UK) and were cultured in DMEM medium supplemented with 10% Foetal Bovine Serum. In order to determine antiproliferative effect of drugs tumor cells were seeded at 2×10^5 cells/ml density and treated with compounds at indicated concentrations. The cultures were maintained at 37° C. in 5% v/v CO2 for 72 h. Cell number and viability were evaluated by Trypan blue exclusion test. Viable cells were expressed as percentage respect to cells treated with vehicle (=100%). Mean and SD values of at least three different experiments are shown.
(§2) U87 and U251 cells were purchased from European Collection of Cell Cultures (ECACC, Salisbury, UK) and were cultured in DMEM medium supplemented with 10% Foetal Bovine Serum. In order to determine antiproliferative effect of drugs tumor cells were seeded at 2×10^5 cells/ml density and treated with compounds at indicated concentrations. The cultures were maintained at 37° C. in 5% v/v CO2 for 72 h. Cell number and viability were evaluated by Trypan blue exclusion test. Viable cells were expressed as percentage respect to untreated cells (=100%/). Mean and SD values of at least three different experiments are shown.

[4] = Water solubility assay; details: for H2O Sol.: Table 8, 20° C., 24 h; for solubility at 24 h / solubility thermodynamic at 24 h: water, 20 °C, thermodynamic from solid
Protocol: Each solid compound (1 mg) was added to 1 mL of water. […] The suspensions were filtered through a 0.45 μm nylon filter (Acrodisc), and the solubilized compound determined by LC-MS-MS assay. For each compound the determination was performed in triplicate. […] The flow rate was 0.2 mL min-^−1 and injection volume was 5 μL. The instrument operated in positive mode and parameters were: detector 1850 V, drying gas pressure 25.0 psi, desolvation temperature 300.0° C., nebulizing gas 40.0 psi, needle 5000 V and shield 600 V. Nitrogen was used as nebulizer gas and drying gas.
Solid compound (1 mg) was added to 1 mL of water. […] The suspensions were filtered through a 0.45-μm nylon filter (Acrodisc), and the solubilised compound determined by LC-UV-MS assay. The determination was performed in triplicate.
Chromatographic analysis was performed with the method above reported and quantification of compounds was made by comparison with apposite calibration curves realized with standard solutions in methanol.

[5] = Enzymatic stability in human plasma; type: in vitro ADME; details: for half-life at 100 μM: human, pooled human plasma diluted with phosphate buffer, pH 7.4
[6] = test system: SH-SY5Y cells; assay: Antiproliferative activity on neuroblastoma human cell line SH-SY5Y; type: cell-based; details: 72 h, viable cells vs untreated
Protocol: (§3) In vitro experiments were carried out using the human neuroblastoma cell line SH-SY5Y. Cells were purchased from American Type Culture Collection (ATCC, Manassas, Va., USA) and were cultured in DMEM medium supplemented with 100/Foetal Bovine Serum. In order to determine antiproliferative effect of drugs SH-SY5Y cells were seeded at 2×10^5 cells/ml density and treated with compounds at increasing concentrations from 0.01 to 50 μM. The cultures were maintained at 37° C. in 5% v/v CO2 for 72 h. Cell number and vitality were evaluated using the automatic cell counter NucleoCounter® (Chemometec, Denmark). Results from the NucleoCounter represented either total or non-viable cell concentration, depending on the sample preparation indicated by manufacturer.
as §3, with “10% Foetal” for “100/Foetal”

[7] = test system: U251 cells; assay: Proliferation assay on U251 cells; type: cell-based, human; details: 72 h, viable cells vs untreated
Protocol: as §1, §2

[8] = PAMPA, BBB permeability; details: for PAMPA BBB (MR %): Membrane Retention; for Papp at 5 h, 0.5 mM: PAMPA, pH 7.4
Protocol: Donor solution (0.5 mM) was prepared by diluting 1 mM dimethylsulfoxide (DMSO) compound stock solution using phosphate buffer (pH 7.4, 0.025 M). […] Donor solution (150 μL) was added to each well of the filter plate. To each well of the acceptor plate were added 300 μL of solution (50% DMSO in phosphate buffer). All compounds were tested in three different plates on different days. The sandwich was incubated for 5 h at room temperature under gentle shaking. After the incubation time, the plates were separated, and samples were taken from both receiver and donor sides and analyzed using LC with UV detection at 280 nm.
Permeability (Papp) for PAMPA was calculated according to the following equation, obtained from Wohnsland and Faller^27 and Sugano et al.^28 equation with some modification in order to obtain permeability values in cm s^−1,
Drug concentration is estimated by using the peak area integration. Membrane retentions (%) were calculated according to the following equation:
where r is the ratio between drug concentration in the acceptor and equilibrium concentration, D, A, and Eq represented drug concentration in the donor, acceptor and equilibrium solution, respectively.
Donor solution of tested compounds (0.5 mM) was prepared by diluting 1 mM dimethylsulfoxide (DMSO) compound stock solution using phosphate buffer (pH 7.4, 25 mM). […] Donor solution (150 μL) was added to each well of the filter plate. To each well of the acceptor plate were added 300 μL of solution (50% DMSO in phosphate buffer). Compounds was tested in three different plates on different days. The sandwich was incubated for 5 h at room temperature under gentle shaking.
Permeability (Papp) for PAMPA was calculated according to the following equation, obtained from Wohnsland and Faller and Sugano et al.^27, 28.
Drug concentration is estimated by using the peak area integration. Membrane retention (%) was calculated according to the following equation:

[9] = PAMPA, intestinal (GI) permeability; details: for PAMPA GI (MR %): Membrane Retention; for Papp at 5 h, 0.5 mM: PAMPA, pH 7.4
[10] = In vivo pharmacokinetics / biodistribution; design: species or system mice; details: 50 mg/Kg i.p.; for Quantity of Compound, BLOOD / Quantity of Compound, BRAIN: administered compound itself, BALB/C mice
Protocol: The animal protocols used were reviewed and approved by the Animal Care and Ethics Committee of the Universita{grave over ( )} degli Studi di Siena, Italy. Male BALB/C mice (weight 20-30 g) were obtained from Charles River (Milan, Italy). […] The blood, previously heparinized, was centrifuged at 4000 rpm for 20 minutes to separate the plasma fraction and then 500 μl were collected in a test tube. […] Samples were centrifuged at 4000 rpm for 20 minutes, the supernatant was recovered, dried under vacuum and analyzed by LC-UV-MS. Brain was homogenized using a glass/glass Potter-Elvehjem homogenizer in presence of Tris-HCl buffer (50 mM) and compounds were recovered using 7 mL of ACN then treated as previously described for blood samples.

[11] = test system: U87 cells; assay: Orthotopic mouse model of GBM; type: in vivo, mice; details: 50 mg/kg three times per week for 4 weeks
Protocol: Survival curves (days) of orthotopic mouse model of GBM.
Male CD1 nude mice (Charles River, Milan, Italy) were maintained under the guidelines established by University of L'Aquila, Medical School and Science and Technology School Board Regulations, complying with the Italian government regulations for the use of laboratory animals. Before any invasive manipulation, mice were anesthetized with a mixture of ketamine (25 mg/ml)/xylazine (5 mg/ml). Tumor grafts were obtained by injecting with a Hamilton syringe mounted on a stereotactic instrument, 2*10^3 U87 cells resuspended in 2 microL PBS (David Kopf Instruments, CA, USA). The cells were injected after the exposition of periosteal cranic site and the drimming of a 1 mm diameter hole localized at 4 mm from striatum and with a depth of 4 mm. The wound was treated with antibiotics and was surgically sutured.

[12] = test system: Fyn mediated phosphorylation of residue Tyr18 in Tau protein; assay: Aβ42 induced Tyr18-Tau phosphorylation in differentiated SH-SY5Y cells; type: cell-based, human
Protocol: The neuroblastoma cell line SH-SY5Y was cultured in media obtained by mixing equal volume of MEM and HAM F12 supplemented with 15% fetal calf serum (FCS, Australian origin, Lonza), 100 U/ml penicillin, 100 μg/ml streptomycin and 2 mM L-glutamine (all from Euroclone) at 37° C. in humidified air with 5% CO2. The medium was changed every 48 hours. Cells were split at about 80% confluence and never cultured beyond passage 20. Cell differentiation was achieved by pre-treating for 5 days the SH-SY5Y cells with media containing 1% FCS and 10 μM retinoic acid (RA, Sigma Aldrich). Subsequently cells were treated for other 7 days in media with no serum and supplemented with 50 ng/ml of human recombinant brain derived neurotrophic factor (BDNF, Peprotech), 10 ng/ml human recombinant beta nerve growth factor (NGF, Peprotech), 10 ng/ml neuregulin 1 beta 2 protein (NRG, Abcam) and 9.35 μg/ml vitamin D3 (Sigma Aldrich). To confirm full neuronal differentiation, the expression of mature isoforms of Tau were checked. Differentiated cells were treated for 1.5, 3 and 6 hours with media containing 10 μM Aβ42 oligomer/protofibrils and N2 supplement (Life Technologies), in the presence or in the absence of Fyn inhibitors dissolved in DMSO. As control, cells were treated with media containing equivalent amounts of DMSO.
Briefly, Aβ42 peptides (Sigma) were dissolved in 1,1,1,3,3,3-hexafluoro-2-propanol and lyophilized to completely remove the solvent. Lyophilized Aβ42 peptides were reconstituted in DMSO to a working concentration of 10 mM, diluted 1:100 using HAM F12 (without phenol red and glutammine), vortexed for 15 sec and incubated 24 hours at 4° C. A042 oligomer/protofibrils were visualized by SDS-PAGE and silver staining.

[13] = test system: human normal fibroblasts; assay: Toxicity in human normal fibroblasts; type: cell-based
[14] = test system: K562 cells; assay: Antiproliferative activity on human cell line K562; type: cell-based
Protocol: In vitro experiments were carried out using the human Chronic Myelogeneous Leukemia cell line K562. Cells were purchased from American Type Culture Collection (ATCC, Manassas, Va., USA) and were cultured in RPMI medium supplemented with 10% Foetal Bovine Serum. […] Cell number and vitality were evaluated using the automatic cell counter NucleoCounteri (Chemometec, Denmark). Results from the NucleoCounter represented either total or non-viable cell concentration, depending on the sample preparation indicated by manufacturer.
In vitro experiments were carried out using the human Chronic Myelogeneous Leukemia cell line K562. Cells were purchased from American Type Culture Collection (ATCC, Manassas, Va., USA) and were cultured in RPMI medium supplemented with 10% Foetal Bovine Serum. […] Cell number and vitality were evaluated using the automatic cell counter NucleoCounter® (Chemometec, Denmark). Results from the NucleoCounter represented either total or non-viable cell concentration, depending on the sample preparation indicated by manufacturer.

[15] = methanol, read-out: Stability MeOH t1/2
[16] = phosphate buffer, pH 7.4, read-out: Stability PBS pH 7.4 t1/2
[17] = 37° C., read-out: Stability Human Plasma t1/2 (converted)

| SMILES | half-life at 500 μM [1, 15] [min] | half-life at 500 μM [1, 16] [min] | Metabolic Stab. % [2] [%] | IC50 ([3]; Homo sapiens, U-87 MG) [µM] | H2O Sol. [4] [µg/mL] | solubility at 24 h [4] [µM] | IC50 ([6]; Homo sapiens, SH-SY5Y) [nM] | IC50 ([7]; Homo sapiens, U-251) [µM] | PAMPA BBB (MR %) [8] | Papp at 5 h, 0.5 mM [8] [×10⁻⁶ cm/s] | PAMPA GI (MR %) [9] | Papp at 5 h, 0.5 mM [9] [×10⁻⁶ cm/s] | solubility thermodynamic at 24 h [4] [µg/mL] | half-life at 100 μM [5, 17] [min] | also measured |
| --- | --- | --- | --- | --- | --- | --- | --- | --- | --- | --- | --- | --- | --- | --- | --- |
| CSc1nc(N(C(=O)OCCN2CCN(C)CC2)c2cccc(Br)c2)c2cnn(CC(C)c3ccccc3)c2n1 (centres unmarked) [proSi278 (A), 2-(4-Methylpiperazin-1-yl)ethyl (3-bromophenyl)(6-(methylthio)-1-(2-phenylpropyl)-1H-pyrazolo[3,4-d]pyrimidin-4-yl)carbamate] | > 2880 | > 2880 | 99.9 | 6.3 | 6.47 | 11.5 (≈ 7.17 µg/mL) | 400 | 5.2 | (49.8) % | 1.89 | (67.0) % | 2.11 | – | – | Stability Human Plasma t1/2 ([5]; 37° C.): 3.21 h; half-life at 100 μM ([5]; read-out: t1/2 in human plasma (converted)): 193 min |
| CN1CCN(CCOC(=O)N(c2ccccc2)c2ncnc3c2cnn3CC(Cl)c2ccc(Br)cc2)CC1 (centres unmarked) [proSi223, 2-(4-Methylpiperazin-1-yl)ethyl (1-(2-(4-bromophenyl)-2-chloroethyl)-H-pyrazolo[3,4-d]pyrimidin-4-yl)(phenyl)carbamate] | > 2880 | > 2880 | – | 5.1 | – | 70.8 (≈ 42.4 µg/mL) | 12600 | 4.7 | (24.9) % | 6.97 | (16.0) % | 9.91 | 41.6 (≈ 69.4 µM) | 268 | – |
| CN1CCN(CCOC(=O)N(c2cccc(Br)c2)c2nc(SCCN3CCOCC3)nc3c2cnn3CC(Cl)c2ccccc2)CC1 (centres unmarked) [proSi306] | > 2880 | > 2880 | – | – | – | 11.7 (≈ 8.74 µg/mL) | – | – | (42.0) % | 2.91 | (45.5) % | 2.13 | 8.7 (≈ 11.7 µM) | 209 | brain concentration with respect to the drug [10]: higher brain concentration; Quantity of Compound, BLOOD ([10]; 15′): 10.7 ± 1.11 nmol of compound/g of tissue; Quantity of Compound, BLOOD ([10]; 30′): 8.9 ± 1.22 nmol of compound/g of tissue; Quantity of Compound, BLOOD ([10]; 1 h): 11.4 ± 1.29 nmol of compound/g of tissue; Quantity of Compound, BLOOD ([10]; 2 h): 7.2 ± 2.17 nmol of compound/g of tissue; Quantity of Compound, BLOOD ([10]; 4 h): 6.5 ± 0.58 nmol of compound/g of tissue; Quantity of Compound, BLOOD ([10]; 8 h): 6.2 ± 2.07 nmol of compound/g of tissue; Quantity of Compound, BLOOD ([10]; 24 h): 3.7 ± 0.60 nmol of compound/g of tissue; Quantity of Compound, BLOOD ([10]; […]): 8.3 ± 2.21 nmol of compound/g of tissue; Quantity of Compound, BRAIN ([10]; 15′): 5.3 ± 1.5 nmol of compound/g of tissue; Quantity of Compound, BRAIN ([10]; 30′): 3.4 ± 0.33 nmol of compound/g of tissue; Quantity of Compound, BRAIN ([10]; 1 h): 3.4 ± 2.24 nmol of compound/g of tissue; Quantity of Compound, BRAIN ([10]; 2 h): 2.8 ± 0.60 nmol of compound/g of tissue; Quantity of Compound, BRAIN ([10]; 4 h): 2.9 ± 1.38 nmol of compound/g of tissue; Quantity of Compound, BRAIN ([10]; 8 h): 3.6 ± 2.12 nmol of compound/g of tissue; Quantity of Compound, BRAIN ([10]; 24 h): 6.6 ± 1.08 nmol of compound/g of tissue; Quantity of Compound, BRAIN ([10]; […]): 2.4 ± 0.24 nmol of compound/g of tissue; survival of mice respect to control group [11]: significant ability in prolonging survival |
| Cc1ccc(-c2nn(CC(Cl)c3ccccc3)c3ncnc(N)c23)cc1 (centres unmarked) [Si309, 1-(2-Chloro-2-phenylethyl)-3-(4-methylphenyl)-1H-pyrazolo[3,4-d]pyrimidin-4-amine] | – | – | – | – | – | – | – | – | – | – | – | – | – | – | duration of inhibitory activity on Tau phosphorylation ([12]; after compound administration): effective up to six hours; Aβ42 induced Tyr18-Tau phosphorylation ([12]; dose dependent): significantly affected; cell toxicity in human normal fibroblasts [13]: did not showed any sign of cell toxicity; IC50 for cell viability K562 [14]: submicromolar range; IC50 ([14]; Homo sapiens, K562, read-out: Cellular Data (IC50, μM) K562): 0.3 ± 0.06 µM |
| CCCCN(C(=O)OCCN1CCN(C)CC1)c1nc(SCC)nc2c1cnn2CC(Cl)c1ccccc1 (centres unmarked) [proSi20, 2-(4-Methylpiperazin-1-yl)ethyl butyl(1-(2-chloro-2-phenylethyl)-6-(ethylthio)-1H-pyrazolo[3,4-d]pyrimidin-4-yl)carbamate] | – | – | – | 3.6 | – | – | 300 | 0.8 | – | – | – | – | – | – | – |
| CSc1nc(Nc2cccc(Br)c2)c2cnn(CC(C)c3ccccc3)c2n1 (centres unmarked) [Si278, N-(3-bromophenyl)-6-(methylthio)-1-(2-phenylpropyl)-H-pyrazolo[3,4-d]pyrimidin-4-amine] | – | – | 95.1 | – | <0.01 | – | – | – | (66.3) % | – | (80.4) % | – | – | – | IC50 [3]: 5.8 µM; H2O Sol. (Log S) ([4]; Table 8): (<−7.60) log mol · L^−1; IC50 [6]: 1200 nM; IC50 [7]: 3.7 µM; PAMPA BBB ([8]; Blood Brain Barrier PAMPA): 0.50 10^−6 cm · sec^−1; PAMPA GI ([9]; Gastrointestinal PAMPA, Table 8): 0 10^−6 cm · sec^−1 |
